This passage reports ED50, selectivity ratio and LD50 results from US4621101A, “Pharmaceutical compositions with antianginal activity” (Egis Gyogyszergyar, priority 1984, dated 1986).

The nature of data set [1]: Antianginal effect in rats after intravenous administration, method of Nieschulz, Popendiker and Hofmann. The class given is in vivo. To be noted: Rattus norvegicus.
Data set [2] in a line: Acute intravenous toxicity (LD50) and therapeutic index, Table II. To be noted: in vivo; for selectivity ratio: from LD50 and ED50, iv.; for LD50: iv.

Like-named read-outs stand apart in the source and are kept apart here.

The term ED50 denotes the dose that gives a 50% effect, or the effect in half of the subjects. By LD50 is commonly meant the dose expected to kill half of the subjects tested. As for `CC(Cc1ccccc1)NCCC(c1ccccc1)c1ccccc1` (stereo not drawn) [Prenylamine, N-3,3-di-phenylpropyl-1-methylphenyl-ethylamine, reference compound], the ED50 in data set [1] turned out to be 6.5 mg/kg. In data set [2], the selectivity ratio came out at 1.77 and the LD50 was 11.5 mg/kg.

As to `CN(C)CCO/N=C1\CCCCCC1Cc1ccccc1` (stereo not drawn) [compound D, 2-benzyl-1-[(E)-(2-dimethylamino-ethoxyimino)]-cycloheptane], the ED50 in data set [1] (read-out: ED50) was found to be 0.52 mg/kg. For the same molecule, in data set [2], the selectivity ratio stood at 76.9 and the 50% lethal dose (LD50) was 40 mg/kg.

For `CC(C)N(CCCO/N=C1\CCCC\C1=C/c1ccc(Cl)cc1)C(C)C` [compound F, 2-[(E)-(4-chlorophenyl)-methylene]-1-[(E)-(3-diisopropylamino)-propyloxyimino]-cyclohexane], in data set [1] (read-out: ED50), the 50% effective dose (ED50) was 0.35 mg/kg. Further, in data set [2], the selectivity ratio stood at 120 and the LD50 was 42 mg/kg.

On to `CC(C)N(CCCO/N=C1\CCCC\C1=C/c1ccccc1)C(C)C` [compound G, 2-[(E)-phenylmethylene]-1-[(E)-(3-diisopropylaminopropyloxyimino)]-cyclohexane], for which, in data set [1] (read-out: ED50), the ED50 came to 0.38 mg/kg. Also, in data set [2], the selectivity ratio was determined as 32.9 and the LD50 worked out at 12.5 mg/kg.
